Experimental data reported in patent EP0550006B1, “Use of N-acyl derivatives of aminoalcohols for the manufacture of a medicament for the treatment of pathologies involving mast cells” (LIFEGROUP S.p.A., priority 1991, dated 1993).
No end group written: not given here.

How the values were obtained:
[1] = organic solvent solubility; conditions: for solubility: organic solvent or mixture
[2] = tested on: mast cells; assay: in vivo mast cell degranulation induced by substance P, general subcutaneous administration; set-up: species or system Sprague Dawley rats; conditions: rat; compound 20 mg/kg subcutaneous, 30 minutes before substance P 10^-6 M s.c. in the auricular pinna; average of 500-800 cells; solvent group 12
Experimental: In this case 2-weeks old rats (Sprague Dawley, Charles River) were firstly subcutaneously treated with 20 mg/kg of the substances under question and after 30 minutes were exposed to the degranulation stimulus by s.c. administration of substance P (10^-6 M) in the auricular pinna. Then the rats were sacrificed and the ear pinna removed for histological assessment of mast cell degranulation by counting the number of degranulated mast cells.
The biological parameter of evaluation was the percentage of degranulated mast cells.
In Tab. 2 the obtained results are reported on an average of 500-800 cells.

[3] = water solubility; conditions: for solubility: water; for water solubility: result in words
[4] = tested on: Peritoneal mast cells of rat; assay: in vitro mast cell degranulation induced by substance P; format: cell-based; conditions: compound 10^-5 M, 30 minutes incubation, then substance P 10^-4M
Experimental: Peritoneal mast cells of rat were taken according to the standard methodology described by Lagunoff (1975, Tech. Biochem. Biophys. Morphol., 2, pp. 289-305).
The cells were then cultured in MEM which 10% fetal calf serum was added to and then incubated in a Haereus^R incubator for 30 minutes.
The derivatives under question at the concentration of 10^-5 M were added to the incubation medium.
At the end of the incubation, the physiological degranulation stimulus represented also in the case by the substance P (10^-4M) was added.
The cells were then centrifugated in order to remove the supernatant formed by the incubation medium and were placed onto a slide after coloration with toluidine blue, for the analysis of the morphological aspect at the optical microscope.
Also under these conditions the parameter to be considered was the percentage of degranulated cells after stimulation with the Substance P.

[5] = tested on: inflammatory response; conditions: substance extracted from yolk egg, administered to man; Coburn et al 1960; cited from earlier work
[6] = tested on: human rheumatoid arthritis; conditions: Perlik et al. 1974; cited from earlier work
[7] = tested on: inflammatory response; conditions: tested animal; prior art; cited from earlier work
[8] = tested on: mast cells; assay: in vivo mast cell degranulation induced by substance P, intradermal (topical) application on the auricular pinna; set-up: species or system Sprague Dawley rats; conditions: for % of degranulated mast cells: rat auricular pinna, compound 0.5 mg/kg intradermal, 10 minutes before substance P 10^-4 M intradermal, sacrifice after 30', solvent group 8
Experimental: After 10 minutes a local administration of substance P ( 10^-4 M), able to induce a mast cells degranulation response, was carried out still by intradermal route. […] The inhibition degree in mast cells degranulation in the tissues of the animals treated with the compounds under question. in comparison with that of animals treated only with the physiological degranulation factor (substance P) was considered as a parameter for the biological activity.

[9] = physchem; conditions: organic solvent or mixture

Row | Compound | solubility ([1]; ethanol) | solubility [3] | water solubility [3] | solubility ([1]; dmso) | % of degranulated mast cells [2] | other results
1 | O=C(CCCCC1CCSS1)NCCO (racemic) [Example 15, N-(2-hydroxyethy)-DL-α-lipoamide] | > 10000 µg/mL | > 10000 µg/mL | – | – | 40% | –
2 | CCCCCCCCCCCCCCCCCC(=O)NCCO [Example 4, N-(2-hydroxyethyl)-stearoylamide] | – | – | – | – | 60% | solubility ([9]; chloroform): > 5000 µg/mL
3 | CCCCCCCCCCCC(=O)NCCO [Example 5, N-(2-hydroxyethyl)-lauroylamide] | – | – | poorly soluble | > 10000 µg/mL | 54% | solubility ([1]; chloroform): > 10000 µg/mL
4 | CCCCCCCCCCCC(=O)N(CCO)CCO [Example 6, N,N-bis(2-hydroxyethyl)-lauroylamide] | – | – | poorly soluble | > 10000 µg/mL | 28% | solubility ([1]; chloroform): > 10000 µg/mL
5 | O=C(NCCO)c1ccccc1 [Example 8, N-(2-hydroxyethyl)-benzoylamide] | > 10000 µg/mL | > 10000 µg/mL | – | > 10000 µg/mL | 48.8% | –
6 | O=C(c1ccccc1)N(CCO)CCO [Example 9, N,N -bis-(2-hydroxyethyl)-benzoylamide] | > 10000 µg/mL | > 10000 µg/mL | – | > 10000 µg/mL | 36.8% | –
7 | C[C@H](CCC(=O)NCCO)[C@H]1CC[C@H]2[C@@H]3CC[C@@H]4C[C@H](O)CC[C@]4(C)[C@H]3C[C@H](O)[C@]12C [Example 12, N-(2-hydroxyethyl)-desoxycholamide] | – | – | – | – | – | solubility ([9]; dmso): > 10000 µg/mL
8 | O=C(NCCO)c1ccccc1O [Example 13, N-(2-hydroxethyl)-salicylamide] | – | – | – | – | 38% | –
9 | O=C(NCCO)c1ccncc1 [Example 14, N-(2-hydroxyethyl)-isonicotinamide] | – | > 10000 µg/mL | – | – | – | solubility ([1]; methanol): > 10000 µg/mL
10 | substance P (RPKPQQFFGLM; ends and bridges not checked; UniProt P20366 58-68, looked up) [reference compound] | – | – | – | – | 92% | % of degranulated mast cells [4]: 96%; % of degranulated mast cells [8]: 94%; mast cells degranulation (morphological analysis) ([8]; rat pinna, intradermal, result in words): induced a degranulation in the majority of mast cells

More lines, main results first:

Row | solubility ([1]; ethanol) | solubility [3] | water solubility [3] | solubility ([1]; dmso) | Compound | % of degranulated mast cells [2] | other results
11 | – | – | insoluble | – | CCCCCCCCCCCCCCCC(=O)NCCO [Example 1, N-palmitoylethanolamide] | 65% | solubility in organic solvents ([1]; solvents in which soluble, in words): hot methanol, CHCl3, DMSO; % of degranulated mast cells [4]: 52%; therapeutic effect [5]: not significant; therapeutic efficacy [6]: beneficial effects were not so remarkable; inhibition of the inflammatory response [7]: generic activity in inhibiting the inflammatory response; % of degranulated mast cells [8]: 50%
12 | – | – | poorly soluble | > 10000 µg/mL | CCCCCCCCCCCCCCCC(=O)N(CCO)CCO [Example 2, N,N-bis(2-hydroxyethyl)-palmitamide] | 48% | % of degranulated mast cells [4]: 30%; % of degranulated mast cells [8]: 35%
13 | – | – | poorly soluble | > 3000 µg/mL | CCCCCCCCCCCCCCCC(=O)NCC(C)O (stereo not drawn) [Example 3, N-(2-hydroxypropyl)-palmitamide] | 49.5% | solubility ([1]; n-octanol): > 10000 µg/mL
14 | > 10000 µg/mL | > 10000 µg/mL | – | > 10000 µg/mL | O=C(CCCO)NCCO [Example 7, N-(2-hydroxyethyl)-4-hydroxybutirramide] | – | –
15 | – | – | poorly soluble | > 10000 µg/mL | CCCCCCCC/C=C\CCCCCCCC(=O)N(CCO)CCO [Example 10, N,N -bis-(2-hydroxyethyl)-oleoylamide] | 44% | solubility ([1]; chloroform): > 10000 µg/mL
16 | > 10000 µg/mL | – | poorly soluble | – | CCCCC/C=C\C/C=C\CCCCCCCC(=O)N(CCO)CCO [Example 11, N,N -bis-(2-hydroxyethyl)-linoleoylamide] | 71% | solubility ([1]; chloroform): > 10000 µg/mL
